Test results: US20240217936A1, “5-BENZY[…] AND PREPARATION METHOD THEREFOR AND USE THEREOF” (WEST CHINA HOSPITAL, SICHUAN UNIVERSITY, priority 2021, published 2024)
Where a name gives a salt, the structure may show the parent alone.

Columns and labels:
[1] = Degradation of prodrug in rat plasma (release of dexmedetomidine, HPLC); format: in vitro ADME; conditions: 37° C.
Protocol: The test prodrug was formulated as a 1 mg/mL of physiological saline solution, and then 100 μL of the prodrug solution was added to 900 μL of rat plasma. The test solution was vortexed for 30 s before incubation at 37° C. 50 μL of drug-containing plasma was collected at 0.5 min, 1 min, 2 min, 3 min, 5 min, 10 min, 15 min, 20 min, 30 min, and 60 min, respectively, to which was immediately added 150 μL of acetonitrile to terminate the enzymatic reaction, followed by adding the solution of internal standard telmisartan in methanol (30 μL, 20 μg/mL). Then, the resultant solution was centrifuged at 20000 rpm and 4° C. for 10 min. 100 μL of the supernatant was injected for detection by HPLC, and the concentration of dexmedetomidine was determined by an internal standard method. The degradation rate of the prodrug was calculated based on the concentration of dexmedetomidine. The chromatographic conditions are: Swell XDB C18 column (150 mm×4.6 mm, 5 μm); column temperature 30° C.; using gradient elution (see Table 1), mobile phase A: methanol, mobile phase B: 0.1% trifluoroacetic acid in water, and mobile phase C: acetonitrile; detection wavelength: 220 nm; flow rate: 1.0 mL/min; injection volume: 30 μL; retention time: 4.7 minutes for dexmedetomidine and 6.7 minutes for internal standard telmisartan. The linear range of dexmedetomidine: 2.5-100 μg/mL. Instruments: Waters 2695 high-performance liquid chromatograph, Waters 2996 photodiode array detector.

Male SD rats [2] = assay: Hypnotic effect after tail vein injection (loss of righting reflex); format: in vivo, rat; conditions: for ED50: Rattus norvegicus, 50% of the dose for the disappearance of righting reflex in rats, tail vein injection; for Onset time: tail vein injection of 2× ED50, loss of righting reflex; for Onset time / Duration: rats; for Duration: tail vein injection of 2× ED50, until recovery of righting reflex
Protocol: Male SD rats, weighing 250-300 g, were randomly divided into groups, with 10 rats in each group. […] The onset times and the duration of hypnosis were recorded.

Male SD rats [3] = assay: Blood pressure change after tail vein injection (mean arterial pressure); conditions: dosage 2× ED50, injection within 15 seconds, 60 min recording, rats under isoflurane
Protocol: Male SD rats weighing 250-300 g were randomly divided into groups, with 10 rats in each group. General anesthesia was maintained by inhaling isoflurane. By intubating via femoral artery, blood pressure was monitored using the BL-420N biological signal collection and analysis system. minutes after blood pressure stabilization, the baseline mean arterial pressure (MAP0) was measured. Subsequently, the physiological saline solution of each test drug was injected via the tail vein (the dosage of each drug was the same as that in Experiment example 2, with a unified injection […] volume of 1 mL). […] All prodrug molecules were injected within 15 seconds. After injection of each drug, the change in blood pressure was continuously recorded for 60 min. […] The difference MAPΔ+ between the baseline mean arterial pressure (MAP0) and the highest mean arterial pressure (MAPmax) during the 60 min measurement time was calculated; the difference MAPΔ− between the baseline mean arterial pressure (MAP0) and the lowest mean arterial pressure (MAPmin) during the 60 min measurement time was also obtained; both of the difference values were used to calculate the maximum increase rate of mean arterial pressure +Δ%=MAPΔ+/MAP0*100% and the maximum decrease rate of mean arterial pressure −Δ%=MAPΔ−/MAP0*100%, respectively. The maximum increase rate of mean arterial pressure +Δ% and the maximum decrease rate −Δ% reflect the degree of blood pressure change that the body experienced after administration. The larger the value, the greater the blood pressure change that the body experienced.

For `Cc1cccc([C@H](C)c2cn(COC(=O)C(C)C)cn2)c1C` [Compound 2-HCl], the “Degradation rate of prodrug %” value ([1]; 0.5 min) was 35%, the “Degradation rate of prodrug %” value ([1]; 1 min) was 57% and the “Degradation rate of prodrug %” value ([1]; 2 min) was 87%. For the same compound, the “Degradation rate of prodrug %” value ([1]; 3 min) was 94%, the “Degradation rate of prodrug %” value ([1]; 5 min) was 100% and the ED50 (Male SD rats [2]) was 0.043 mg/kg. For the same compound, the Onset time (Male SD rats [2]) was 1.1 ± 0.2 min, the Duration (Male SD rats [2]) was 63 ± 15 min and the “+Δ % (The maximum increase rate of blood pressure)” value (Male SD rats [3]) was “*19 ± 11%”. The “−Δ % (The maximum decrease rate of blood pressure)” value (Male SD rats [3]) was 32 ± 5%.

For `Cc1cccc([C@H](C)c2cn(COC(=O)C(C)(C)C)cn2)c1C` [Compound 3-HCl], the “Degradation rate of prodrug %” value ([1]; 0.5 min) was 36%, the “Degradation rate of prodrug %” value ([1]; 1 min) was 73% and the “Degradation rate of prodrug %” value ([1]; 2 min) was 87%. The “Degradation rate of prodrug %” value ([1]; 3 min) was 96%, the “Degradation rate of prodrug %” value ([1]; 5 min) was 100% and the ED50 (Male SD rats [2]) was 0.059 mg/kg. The Onset time (Male SD rats [2]) was 2.6 ± 1.1 min, the Duration (Male SD rats [2]) was 50 ± 10 min and the “+Δ % (The maximum increase rate of blood pressure)” value (Male SD rats [3]) was “*13 ± 6%”. For the same compound, the “−Δ % (The maximum decrease rate of blood pressure)” value (Male SD rats [3]) was 41 ± 8%.

In the case of `Cc1cccc([C@H](C)c2cn(C(=O)OC(C)C)cn2)c1C` [Compound 5-HCl], the “Degradation rate of prodrug %” value ([1]; 0.5 min) is reported as 36%, the “Degradation rate of prodrug %” value ([1]; 1 min) is reported as 47% and the “Degradation rate of prodrug %” value ([1]; 2 min) is reported as 52%. The “Degradation rate of prodrug %” value ([1]; 3 min) was 67%, the “Degradation rate of prodrug %” value ([1]; 5 min) was 89% and the “Degradation rate of prodrug %” value ([1]; 10 min) was 98%. For the same compound, the “Degradation rate of prodrug %” value ([1]; 15 min) was 100%, the ED50 (Male SD rats [2]) was 0.037 mg/kg and the Onset time (Male SD rats [2]) was 3.7 ± 1.3 min. The Duration (Male SD rats [2]) was 61 ± 15 min, the “+Δ % (The maximum increase rate of blood pressure)” value (Male SD rats [3]) was “*18 ± 6%” and the “−Δ % (The maximum decrease rate of blood pressure)” value (Male SD rats [3]) was 35 ± 5%.

In the case of `CCOC(=O)OCn1cnc([C@@H](C)c2cccc(C)c2C)c1` [Compound 6-HCl], the “Degradation rate of prodrug %” value ([1]; 0.5 min) is reported as 21%, the “Degradation rate of prodrug %” value ([1]; 1 min) is reported as 47% and the “Degradation rate of prodrug %” value ([1]; 2 min) is reported as 76%. The “Degradation rate of prodrug %” value ([1]; 3 min) was 89%, the “Degradation rate of prodrug %” value ([1]; 5 min) was 96% and the “Degradation rate of prodrug %” value ([1]; 10 min) was 100%. It also gave an ED50 (Male SD rats [2]) of 0.03 mg/kg, an Onset time (Male SD rats [2]) of 2.1 ± 1.1 min and a Duration (Male SD rats [2]) of 45 ± 8 min. For the same compound, the “+Δ % (The maximum increase rate of blood pressure)” value (Male SD rats [3]) was “*23 ± 9%” and the “−Δ % (The maximum decrease rate of blood pressure)” value (Male SD rats [3]) was 36 ± 6%.

For `Cc1cccc([C@H](C)c2cn(COC(=O)OC(C)C)cn2)c1C` [Compound 7-HCl], the “Degradation rate of prodrug %” value ([1]; 0.5 min) was 22%, the “Degradation rate of prodrug %” value ([1]; 1 min) was 46% and the “Degradation rate of prodrug %” value ([1]; 2 min) was 67%. For the same compound, the “Degradation rate of prodrug %” value ([1]; 3 min) was 88%, the “Degradation rate of prodrug %” value ([1]; 5 min) was 97% and the “Degradation rate of prodrug %” value ([1]; 10 min) was 100%. It also gave an ED50 (Male SD rats [2]) of 0.036 mg/kg, an Onset time (Male SD rats [2]) of 4.6 ± 1.3 min and a Duration (Male SD rats [2]) of 39 ± 11 min. For the same compound, the “+Δ % (The maximum increase rate of blood pressure)” value (Male SD rats [3]) was “*17 ± 8%” and the “−Δ % (The maximum decrease rate of blood pressure)” value (Male SD rats [3]) was 37 ± 8%.

For `CCCC(=O)OCn1cnc([C@@H](C)c2cccc(C)c2C)c1` [Compound 8-HCl], the “Degradation rate of prodrug %” value ([1]; 0.5 min) was 76%, the “Degradation rate of prodrug %” value ([1]; 1 min) was 89% and the “Degradation rate of prodrug %” value ([1]; 2 min) was 97%. The “Degradation rate of prodrug %” value ([1]; 3 min) was 100%, the ED50 (Male SD rats [2]) was 0.024 mg/kg and the Onset time (Male SD rats [2]) was 4.1 ± 2.4 min. For the same compound, the Duration (Male SD rats [2]) was 31 ± 13 min, the “+Δ % (The maximum increase rate of blood pressure)” value (Male SD rats [3]) was “*18 ± 8%” and the “−Δ % (The maximum decrease rate of blood pressure)” value (Male SD rats [3]) was 31 ± 7%.

With `CCC(=O)OCn1cnc([C@@H](C)c2cccc(C)c2C)c1` [Compound 10-HCl] the “Degradation rate of prodrug %” value ([1]; 0.5 min) was 57%, the “Degradation rate of prodrug %” value ([1]; 1 min) was 82% and the “Degradation rate of prodrug %” value ([1]; 2 min) was 85%. For the same compound, the “Degradation rate of prodrug %” value ([1]; 3 min) was 97%, the “Degradation rate of prodrug %” value ([1]; 5 min) was 100% and the ED50 (Male SD rats [2]) was 0.028 mg/kg. The Onset time (Male SD rats [2]) was 2.3 ± 1.1 min, the Duration (Male SD rats [2]) was 48 ± 12 min and the “+Δ % (The maximum increase rate of blood pressure)” value (Male SD rats [3]) was 31 ± 7%. The “−Δ % (The maximum decrease rate of blood pressure)” value (Male SD rats [3]) was 40 ± 8%.

For `CCCOC(=O)n1cnc([C@@H](C)c2cccc(C)c2C)c1` [Compound 11-HCl], the “Degradation rate of prodrug %” value ([1]; 0.5 min) was 26%, the “Degradation rate of prodrug %” value ([1]; 1 min) was 57% and the “Degradation rate of prodrug %” value ([1]; 2 min) was 74%. For the same compound, the “Degradation rate of prodrug %” value ([1]; 3 min) was 75%, the “Degradation rate of prodrug %” value ([1]; 5 min) was 82% and the “Degradation rate of prodrug %” value ([1]; 10 min) was 88%. The “Degradation rate of prodrug %” value ([1]; 15 min) was 95%, the “Degradation rate of prodrug %” value ([1]; 20 min) was 100% and the ED50 (Male SD rats [2]) was 0.026 mg/kg. For the same compound, the Onset time (Male SD rats [2]) was 2.6 ± 0.3 min, the Duration (Male SD rats [2]) was 47 ± 8 min and the “+Δ % (The maximum increase rate of blood pressure)” value (Male SD rats [3]) was “*25 ± 7%”. The “−Δ % (The maximum decrease rate of blood pressure)” value (Male SD rats [3]) was 41 ± 8%.

For `COC(=O)OCn1cnc([C@@H](C)c2cccc(C)c2C)c1` [Compound 13-HCl], the “Degradation rate of prodrug %” value ([1]; 0.5 min) was 16%, the “Degradation rate of prodrug %” value ([1]; 1 min) was 44% and the “Degradation rate of prodrug %” value ([1]; 2 min) was 67%. The “Degradation rate of prodrug %” value ([1]; 3 min) was 79%, the “Degradation rate of prodrug %” value ([1]; 5 min) was 90% and the “Degradation rate of prodrug %” value ([1]; 10 min) was 96%. For the same compound, the “Degradation rate of prodrug %” value ([1]; 15 min) was 100%, the ED50 (Male SD rats [2]) was 0.025 mg/kg and the Onset time (Male SD rats [2]) was 4.1 ± 1.3 min. For the same compound, the Duration (Male SD rats [2]) was 36 ± 7 min, the “+Δ % (The maximum increase rate of blood pressure)” value (Male SD rats [3]) was “*16 ± 8%” and the “−Δ % (The maximum decrease rate of blood pressure)” value (Male SD rats [3]) was 39 ± 7%.

For `Cc1cccc([C@H](C)c2cn(COC(=O)OC3CCC3)cn2)c1C` [Compound 14-HCl], the “Degradation rate of prodrug %” value ([1]; 0.5 min) was 53%, the “Degradation rate of prodrug %” value ([1]; 1 min) was 80% and the “Degradation rate of prodrug %” value ([1]; 2 min) was 85%. For the same compound, the “Degradation rate of prodrug %” value ([1]; 3 min) was 98%, the “Degradation rate of prodrug %” value ([1]; 5 min) was 100% and the ED50 (Male SD rats [2]) was 0.031 mg/kg. The Onset time (Male SD rats [2]) was 3.9 ± 2.1 min, the Duration (Male SD rats [2]) was 51 ± 7 min and the “+Δ % (The maximum increase rate of blood pressure)” value (Male SD rats [3]) was 31 ± 6%. For the same compound, the “−Δ % (The maximum decrease rate of blood pressure)” value (Male SD rats [3]) was 36 ± 6%.

In the case of `Cc1cccc([C@H](C)c2cn(COC(=O)C3CC3)cn2)c1C` [Compound 15-HCl], the “Degradation rate of prodrug %” value ([1]; 0.5 min) is reported as 18%, the “Degradation rate of prodrug %” value ([1]; 1 min) is reported as 41% and the “Degradation rate of prodrug %” value ([1]; 2 min) is reported as 54%. For the same compound, the “Degradation rate of prodrug %” value ([1]; 3 min) was 63%, the “Degradation rate of prodrug %” value ([1]; 5 min) was 87% and the “Degradation rate of prodrug %” value ([1]; 10 min) was 94%. For the same compound, the “Degradation rate of prodrug %” value ([1]; 15 min) was 100%, the ED50 (Male SD rats [2]) was 0.03 mg/kg and the Onset time (Male SD rats [2]) was 3.5 ± 1.2 min. The Duration (Male SD rats [2]) was 43 ± 9 min, the “+Δ % (The maximum increase rate of blood pressure)” value (Male SD rats [3]) was “*21 ± 5%” and the “−Δ % (The maximum decrease rate of blood pressure)” value (Male SD rats [3]) was 36 ± 6%.
